From US7951814B2, “Quinazolinedione derivatives as TRPA1 modulators” (Glenmark Pharmaceuticals, S.A., priority 2008, dated 2011)

Target: T1, Human TRPA1 expressing CHO cells (Homo sapiens, UniProt O75762)
T1 construct: expressed in transfected cells; host or cells: CHO cells (under G-418 selection)
Test: 45Calcium uptake assay: inhibition of AITC induced cellular uptake of radioactive calcium
Assay type: cell-based
Settings: AITC 30 μM, human TRPA1 CHO cells; for inhibition at 1 µM: 1.0 μM test compound, read-out: Percentage inhibition at 1.0 μM; for inhibition at 10 µM: 10.0 μM test compound, read-out: Percentage inhibition at 10.0 μM; for IC50: read-out: IC50 value (range)
Summary of the method: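 CHO cells expressing human TRPA1 were preincubated 10 min with compound (0.5% DMSO final), then stimulated 3 min with 30 μM AITC plus 5 μCi/ml 45Ca2+. Lysate radioactivity gave % of maximal uninhibited response; IC50 by nonlinear regression.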

T1 sequence (O75762 whole entry): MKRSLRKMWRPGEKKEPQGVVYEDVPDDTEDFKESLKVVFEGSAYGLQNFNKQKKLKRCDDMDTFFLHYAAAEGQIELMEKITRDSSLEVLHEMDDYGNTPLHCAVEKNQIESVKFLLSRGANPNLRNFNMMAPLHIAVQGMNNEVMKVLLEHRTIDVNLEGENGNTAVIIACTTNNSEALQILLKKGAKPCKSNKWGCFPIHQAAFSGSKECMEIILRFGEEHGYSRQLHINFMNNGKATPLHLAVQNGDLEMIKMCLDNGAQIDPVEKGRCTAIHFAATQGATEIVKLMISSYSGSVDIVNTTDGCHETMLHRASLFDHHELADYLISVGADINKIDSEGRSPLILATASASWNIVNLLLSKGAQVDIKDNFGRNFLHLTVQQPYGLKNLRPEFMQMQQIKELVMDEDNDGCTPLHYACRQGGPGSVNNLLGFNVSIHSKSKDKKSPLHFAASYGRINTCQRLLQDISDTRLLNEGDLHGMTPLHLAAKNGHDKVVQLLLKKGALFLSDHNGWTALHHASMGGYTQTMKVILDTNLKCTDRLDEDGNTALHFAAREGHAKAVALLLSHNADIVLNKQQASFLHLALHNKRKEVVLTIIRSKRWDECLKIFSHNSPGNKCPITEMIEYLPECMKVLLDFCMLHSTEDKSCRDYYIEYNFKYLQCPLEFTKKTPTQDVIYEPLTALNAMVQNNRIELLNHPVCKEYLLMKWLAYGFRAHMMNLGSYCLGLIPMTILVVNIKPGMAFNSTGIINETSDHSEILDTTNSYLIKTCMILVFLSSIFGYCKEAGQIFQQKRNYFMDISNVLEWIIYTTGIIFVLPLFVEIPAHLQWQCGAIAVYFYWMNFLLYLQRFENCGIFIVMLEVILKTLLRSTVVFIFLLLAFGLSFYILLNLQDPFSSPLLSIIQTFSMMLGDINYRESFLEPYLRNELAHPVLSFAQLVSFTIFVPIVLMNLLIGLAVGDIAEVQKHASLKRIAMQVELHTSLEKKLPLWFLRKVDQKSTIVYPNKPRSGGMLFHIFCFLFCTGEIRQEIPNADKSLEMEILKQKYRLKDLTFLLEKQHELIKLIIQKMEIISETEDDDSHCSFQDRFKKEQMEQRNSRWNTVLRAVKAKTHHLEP

SMILES | inhibition at 1 µM [%] | inhibition at 10 µM [%] | IC50 [nM]
Cc1sc(NC(=O)Cc2cccc3c2c(=O)n(C)c(=O)n3C)nc1-c1ccc(Cl)cc1 [Example 30, N1-[4-(4-Chlorophenyl)-5-methyl-1,3-thiazolyl]-2-(1,3-dimethyl-2,4-dioxo-1,2,3,4-tetrahydro-5-quinazolinyl)acetamide] | 37.3 | 91 | –
Cn1c(=O)c2c(CC(=O)Nc3nc(-c4c[nH]c5ccccc45)cs3)cccc2n(C)c1=O [Example 73, N1-[4-(1H-3-Indolyl)-1,3-thiazol-2-yl]-2-(1,3-dimethyl-2,4-dioxo-1,2,3,4-tetrahydro-5-quinazolinyl)acetamide] | 32.5 | 72.6 | –
Cn1c(=O)c2c(CC(=O)Nc3cccc(-c4ccc(Cl)cc4)n3)cccc2n(C)c1=O [Example 4, N1-[6-(4-chlorophenyl)-2-pyridyl]-2-(1,3-dimethyl-2,4-dioxo-1,2,3,4-tetrahydro-5-quinazolinyl)acetamide] | 60.7 | 95.2 | –
Cn1c(=O)c2c(CC(=O)Nc3nc(-c4cc(F)c(Cl)cc4Cl)cs3)cccc2n(C)c1=O [Example 63, N1-[4-(2,4-Dichloro-5-fluorophenyl)-1,3-thiazol-2-yl]-2-(1,3-dimethyl-2,4-dioxo-1,2,3,4-tetrahydro-5-quinazolinyl)acetamide] | 87.1 | 96.9 | > 100
CC(C)CCOc1ccc(-c2csc(NC(=O)Cc3cccc4c3c(=O)n(C)c(=O)n4C)n2)cc1 [Example 19, N1-[4-(4-(3-Methylbutoxy)phenyl)-1,3-thiazol-2-yl]-2-(1,3-dimethyl-2,4-dioxo-1,2,3,4-tetrahydro-5-quinazolinyl)acetamide] | 93 | 97.9 | 50.1 to 100
Cn1c(=O)c2c(CC(=O)Nc3nc(-c4cc(F)c(OC(F)F)c(F)c4)cs3)cccc2n(C)c1=O [Example 69] | 99.9 | 100 | < 50

Now from value to compound:

inhibition at 1 µM [%] | inhibition at 10 µM [%] | IC50 [nM] | SMILES
95.5 | 99.1 | > 100 | Cn1c(=O)c2c(CC(=O)Nc3nc(-c4cccc(Cl)c4)cs3)cccc2n(C)c1=O [Example 11, N1-[4-(3-Chlorophenyl)-1,3-thiazol-2yl]-2-(1,3-dimethyl-2,4-dioxo-1,2,3,4-tetrahydro-5-quinazolinyl)acetamide]
20.9 | 47.7 | – | O=C(Cc1cccc2[nH]c(=O)[nH]c(=O)c12)Nc1nc(-c2ccc(Cl)cc2)cs1 [Example 29, N1-[4-(4-Chlorophenyl)-1,3-thiazol-2-yl]-2-(2,4-dioxo-1,2,3,4-tetrahydro-5-quinazolinyl)acetamide]
13.6 | 5.39 | – | CCCn1c(=O)c2c(CC(=O)Nc3nc(-c4cccc(C(F)(F)F)c4)cs3)cccc2n(CCC)c1=O [Example 26, N1-[4-(3-Trifluoromethylphenyl)-1,3-thiazo-2-yl]-2-(1,3-dipropyl-2,4-dioxo-1,2,3,4-tetrahydro-5-quinazolinyl)acetamide]
84.3 | 87.9 | > 100 | Cn1c(=O)c2c(CC(=O)Nc3nc(-c4cc(Cl)ccc4Cl)cs3)cccc2n(C)c1=O [Example 46, N1-[4-(2,5-Dichlorophenyl)-1,3-thiazol-2-yl]-2-(1,3-dimethyl-2,4-dioxo-1,2,3,4-tetrahydro-5-quinazolinyl)acetamide]
15.8 | 85 | – | Cn1c(=O)c2c(CC(=O)Nc3nc(-c4cc(F)cc(F)c4)cs3)cccc2n(C)c1=O [Example 34, N1-[4-(3,5-Difluorophenyl)-1,3-thiazol-2-yl]-2-(1,3-dimethyl-2,4-dioxo-1,2,3,4-tetrahydro-5-quinazolinyl)acetamide]
52.9 | 79.9 | – | Cn1c(=O)c2c(CC(=O)Nc3nc(-c4ccccc4)cs3)cccc2n(C)c1=O [Example 8, N1-[4-phenyl-1,3-thiazol-2-yl]-2-(1,3-dimethyl-2,4-dioxo-1,2,3,4-tetrahydro-5-quinazolinyl)acetamide]
